# Data reported in patent US20060089378A1 (priority 2004, published 2006).
# Read-outs that look alike come from different tables or passages of the source.
# How the values were obtained:
# [1] = target: T1, Cannabinoid CB1 Receptor (Homo sapiens, UniProt P21554); experiment: Binding assay for CB1 agonists or inverse agonists (radioligand competition, membranes of transfected SK-N-MC cells); conditions: for inhibition at 0.2 µM: read-out: Cannabinoid CB1 Receptor Binding percent inhibition
# T1 construct: expressed in transfected cells
# T1 sequence (P21554 whole entry): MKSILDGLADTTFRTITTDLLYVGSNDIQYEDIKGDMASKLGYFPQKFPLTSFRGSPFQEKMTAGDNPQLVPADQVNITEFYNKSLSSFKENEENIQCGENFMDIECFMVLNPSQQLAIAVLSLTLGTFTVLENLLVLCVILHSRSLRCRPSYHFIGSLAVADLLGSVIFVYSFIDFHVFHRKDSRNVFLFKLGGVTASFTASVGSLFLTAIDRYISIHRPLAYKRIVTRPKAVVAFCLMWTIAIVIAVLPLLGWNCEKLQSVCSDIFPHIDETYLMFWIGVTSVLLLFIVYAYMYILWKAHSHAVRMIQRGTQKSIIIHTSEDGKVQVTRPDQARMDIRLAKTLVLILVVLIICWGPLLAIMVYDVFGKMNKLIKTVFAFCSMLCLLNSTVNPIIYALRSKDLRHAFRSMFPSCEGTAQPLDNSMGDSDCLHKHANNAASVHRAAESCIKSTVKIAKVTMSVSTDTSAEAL
# [2] = target: T2, Cannabinoid CB2 Receptor (Homo sapiens, UniProt P34972); experiment: Binding assay for CB2 agonists or inverse agonists (radioligand competition, membranes of transfected SK-N-MC cells); conditions: read-out: Cannabinoid CB2 Receptor Binding percent inhibition
# T2 construct: expressed in transfected cells
# T2 sequence (P34972 whole entry): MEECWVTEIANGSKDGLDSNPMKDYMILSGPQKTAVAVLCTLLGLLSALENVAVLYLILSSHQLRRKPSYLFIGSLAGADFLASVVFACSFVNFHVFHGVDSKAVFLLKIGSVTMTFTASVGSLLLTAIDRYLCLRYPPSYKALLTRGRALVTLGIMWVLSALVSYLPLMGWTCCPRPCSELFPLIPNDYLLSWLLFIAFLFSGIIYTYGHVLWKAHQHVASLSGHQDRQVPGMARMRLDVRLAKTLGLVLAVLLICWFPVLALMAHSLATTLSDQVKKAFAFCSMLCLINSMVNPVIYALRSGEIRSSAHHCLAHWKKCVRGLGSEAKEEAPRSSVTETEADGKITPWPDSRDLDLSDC
# [3] = target: CB1 receptor (human) (Homo sapiens, UniProt P21554); experiment: cell-based
# Sequence of CB1 receptor (human) (P21554 whole entry): as the sequence (P21554 whole entry) above
# [4] = test concentration of 0.2 μM, compounds without an IC50 binding value
compound,measurement,setting,value
"COC(=O)N1C/C(=C\c2ccc(F)cc2)c2c(c(C(=O)N[C@H](C)c3ccccc3)nn2-c2ccc(Cl)cc2Cl)C1 [Cpd 1, (7E)-1-(2,4-dichloro-phenyl)-7-(4-fluoro-benzylidene)-3-[(1R)-1-phenyl-ethyl-carbamoyl]-1,4,6,7-tetrahydro-pyrazolo[4,3-c]pyridine-5-carboxylic acid methyl ester]",IC50,[1],3 nM
same,inhibition at 0.2 µM,[2],26%
same,EC50,[3],1 nM
"C[C@@H](NC(=O)c1nn(-c2ccc(Cl)cc2Cl)c2c1CN(C(=O)OC(C)(C)C)C/C2=C\c1ccc(F)cc1)c1ccccc1 [Cpd 2, (7E)-1-(2,4-dichloro-phenyl)-7-(4-fluoro-benzylidene)-3-[(1R)-1-phenyl-ethyl-carbamoyl]-1,4,6,7-tetrahydro-pyrazolo[4,3-c]pyridine-5-carboxylic acid tert-butyl ester]",IC50,[1],30 nM
same,inhibition at 0.2 µM,[2],16%
same,EC50,[3],10 nM
"CC(=O)N1C/C(=C\c2ccc(F)cc2)c2c(c(C(=O)N[C@H](C)c3ccccc3)nn2-c2ccc(Cl)cc2Cl)C1 [Cpd 3, (7E)-5-acetyl-1-(2,4-dichloro-phenyl)-7-(4-fluoro-benzylidene)-4,5,6,7-tetrahydro-1H-pyrazolo[4,3-c]pyridine-3-carboxylic acid [(1R)-1-phenyl-ethyl]-amide]",IC50,[1],10 nM
same,inhibition at 0.2 µM,[2],20%
same,EC50,[3],3 nM
"CC(=O)N1C/C(=C\c2ccc(F)cc2)c2c(c(C(=O)N[C@@H](C)C3CCCCC3)nn2-c2ccc(Cl)cc2Cl)C1 [Cpd 6, (7E)-5-acetyl-1-(2,4-dichloro-phenyl)-7-(4-fluoro-benzylidene)-4,5,6,7-tetrahydro-1H-pyrazolo[4,3-c]pyridine-3-carboxylic acid [(1S)-1-cyclohexyl-ethyl]-amide]",IC50,[1],100 nM
same,inhibition at 0.2 µM,[2],14%
same,EC50,[3],30 nM
"COC(=O)N1C/C(=C\c2ccc(F)cc2)c2c(c(C(=O)N[C@@H](C)C3CCCCC3)nn2-c2ccc(Cl)cc2Cl)C1 [Cpd 7, (7E)-3-[(1S)-1-cyclohexyl-ethylcarbamoyl]-1-(2,4-dichloro-phenyl)-7-(4-fluoro-benzylidene)-1,4,6,7-tetrahydro-pyrazolo[4,3-c]pyridine-5-carboxylic acid methyl ester]",IC50,[1],40 nM
same,inhibition at 0.2 µM,[2]; [4],13%
same,EC50,[3],10 nM
"C[C@@H](NC(=O)c1nn(-c2ccc(Cl)cc2Cl)c2c1CN(C(=O)OC(C)(C)C)C/C2=C\c1ccc(F)cc1)C1CCCCC1 [Cpd 8, (7E)-3-[(1R)-1-cyclohexyl-ethylcarbamoyl]-1-(2,4-dichloro-phenyl)-7-(4-fluoro-benzylidene)-1,4,6,7-tetrahydro-pyrazolo[4,3-c]pyridine-5-carboxylic acid tert-butyl ester]",IC50,[1],60 nM
same,inhibition at 0.2 µM,[2],34%
same,EC50,[3],200 nM
"CC(C)(C)OC(=O)N1C/C(=C\c2ccc(F)cc2)c2c(c(C(=O)NN3CCCCC3)nn2-c2ccc(Cl)cc2Cl)C1 [Cpd 9, (7E)-1-(2,4-dichloro-phenyl)-7-(4-fluoro-benzylidene)-3-(piperidin-1-ylcarbamoyl)-1,4,6,7-tetrahydro-pyrazolo[4,3-c]pyridine-5-carboxylic acid tert-butyl ester]",inhibition at 0.2 µM,[1],55%
same,inhibition at 0.2 µM,[2],8%
same,EC50,[3],20 nM
"CC(=O)N1C/C(=C\c2ccc(F)cc2)c2c(c(C(=O)NN3CCCCC3)nn2-c2ccc(Cl)cc2Cl)C1 [Cpd 10, (7E)-5-acetyl-1-(2,4-dichloro-phenyl)-7-(4-fluoro-benzylidene)-4,5,6,7-tetrahydro-1H-pyrazolo[4,3-c]pyridine-3-carboxylic acid piperidin-1-ylamide]",IC50,[1],70 nM
same,inhibition at 0.2 µM,[2],63%
same,EC50,[3],20 nM
"COC(=O)N1C/C(=C\c2ccc(F)cc2)c2c(c(C(=O)NN3CCCCC3)nn2-c2ccc(Cl)cc2Cl)C1 [Cpd 11, (7E)-1-(2,4-dichloro-phenyl)-7-(4-fluoro-benzylidene)-3-(piperidin-1-ylcarbamoyl)-1,4,6,7-tetrahydro-pyrazolo[4,3-c]pyridine-5-carboxylic acid methyl ester]",IC50,[1],50 nM
same,inhibition at 0.2 µM,[2],15%
same,EC50,[3],40 nM
"O=C(NN1CCCCC1)c1nn(-c2ccc(Cl)cc2Cl)c2c1CNC/C2=C\c1ccc(F)cc1 [Cpd 12, (7E)-1-(2,4-dichloro-phenyl)-7-(4-fluoro-benzylidene)-4,5,6,7-tetrahydro-1H-pyrazolo[4,3-c]pyridine-3-carboxylic acid piperidin-1-ylamide]",IC50,[1],100 nM
same,inhibition at 0.2 µM,[2],5%
same,EC50,[3],80 nM
"COC(=O)N1C/C(=C\c2ccc(F)cc2)c2c(c(C(=O)N[C@H](C)C3CCCCC3)nn2-c2ccc(Cl)cc2Cl)C1 [Cpd 13, (7E)-3-[(1R)-1-cyclohexyl-ethylcarbamoyl]-1-(2,4-dichloro-phenyl)-7-(4-fluoro-benzylidene)-1,4,6,7-tetrahydro-pyrazolo[4,3-c]pyridine-5-carboxylic acid methyl ester]",IC50,[1],2 nM
same,inhibition at 0.2 µM,[2]; [4],11%
same,EC50,[3],10 nM
"CC(=O)N1C/C(=C\c2ccc(F)cc2)c2c(c(C(=O)N[C@H](C)C3CCCCC3)nn2-c2ccc(Cl)cc2Cl)C1 [Cpd 14, (7E)-5-acetyl-1-(2,4-dichloro-phenyl)-7-(4-fluoro-benzylidene)-4,5,6,7-tetrahydro-1H-pyrazolo[4,3-c]pyridine-3-carboxylic acid [(1R)-1-cyclohexyl-ethyl]-amide]",IC50,[1],8 nM
same,inhibition at 0.2 µM,[2],16%
same,EC50,[3],4 nM
"C[C@@H](NC(=O)c1nn(-c2ccc(Cl)cc2Cl)c2c1CNC/C2=C\c1ccc(F)cc1)c1ccccc1 [Cpd 15, (7E)-1-(2,4-dichloro-phenyl)-7-(4-fluoro-benzylidene)-4,5,6,7-tetrahydro-1H-pyrazolo[4,3-c]pyridine-3-carboxylic acid [(1R)-1-phenyl-ethyl]-amide]",IC50,[1],10 nM
same,inhibition at 0.2 µM,[2],23%
same,EC50,[3],10 nM
"C[C@@H](NC(=O)c1nn(-c2ccc(Cl)cc2Cl)c2c1CN(C(=O)OCc1ccccc1)C/C2=C\c1ccc(F)cc1)c1ccccc1 [Cpd 16, (7E)-1-(2,4-dichloro-phenyl)-7-(4-fluoro-benzylidene)-3-[(1R)-1-phenyl-ethylcarbamoyl]-1,4,6,7-tetrahydro-pyrazolo[4,3-c]pyridine-5-carboxylic acid benzyl ester]",IC50,[1],20 nM
same,inhibition at 0.2 µM,[2],27%
same,EC50,[3],60 nM
"CCNC(=O)N1CCc2c(c(C(=O)NC3C4(C)CCC(C4)C3(C)C)nn2C2CCCCC2)C1 (stereo not shown) [Cpd 129, 1-cyclohexyl-1,4,6,7-tetrahydro-pyrazolo[4,3-c]pyridine-3,5-dicarboxylic acid 5-ethylamide 3-[(1,3,3-trimethyl-bicyclo[2.2.1]hept-2-yl)-amide]]",IC50,[1],1000 nM
same,"CB1 Receptor Functional Activity (change in functional activity, CRE β-gal)","[3]; one compound concentration, β-galactosidase activity relative to vehicle treated cells",36%
"COc1ccc(/C=C2\CN(C(=O)OC(C)(C)C)Cc3c(C(=O)N4CCCCC4)nn(-c4ccc(Cl)cc4Cl)c32)cc1 [Cpd 137, (7E)-1-(2,4-dichloro-phenyl)-7-(4-methoxy-benzylidene)-3-(piperidine-1-carbonyl)-1,4,6,7-tetrahydro-pyrazolo[4,3-c]pyridine-5-carboxylic acid tert-butyl ester]",inhibition at 0.2 µM,[1]; [4],34%
same,inhibition at 0.2 µM,[2]; [4],42%
"COc1ccc(/C=C2\CN(C(=O)OC(C)(C)C)Cc3c(C(=O)NN4CCC(O)CC4)nn(-c4ccc(Cl)cc4Cl)c32)cc1 [Cpd 141, (7E)-1-(2,4-dichloro-phenyl)-3-(4-hydroxy-piperidin-1-ylcarbamoyl)-7-(4-methoxy-benzylidene)-1,4,6,7-tetrahydro-pyrazolo[4,3-c]pyridine-5-carboxylic acid tert-butyl ester]",inhibition at 0.2 µM,[1]; [4],6%
same,inhibition at 0.2 µM,[2]; [4],9%
"COc1ccc(/C=C2\CNCc3c(C(=O)NN4CCC(O)CC4)nn(-c4ccc(Cl)cc4Cl)c32)cc1 [Cpd 142, (7E)-1-(2,4-dichloro-phenyl)-7-(4-methoxy-benzylidene)-4,5,6,7-tetrahydro-1H-pyrazolo[4,3-c]pyridine-3-carboxylic acid (4-hydroxy-piperidin-1-yl)-amide]",inhibition at 0.2 µM,[1]; [4],10%
same,inhibition at 0.2 µM,[2]; [4],0%
"CC(C)(C)OC(=O)N1C/C(=C\c2ccc(F)cc2)c2c(c(C(=O)NN3CCC(O)CC3)nn2-c2ccc(Cl)cc2Cl)C1 [Cpd 143, (7E)-1-(2,4-dichloro-phenyl)-7-(4-fluoro-benzylidene)-3-(4-hydroxy-piperidin-1-ylcarbamoyl)-1,4,6,7-tetrahydro-pyrazolo[4,3-c]pyridine-5-carboxylic acid tert-butyl ester]",inhibition at 0.2 µM,[1]; [4],4%
same,inhibition at 0.2 µM,[2]; [4],0%
"COC(=O)N1C/C(=C\c2ccc(OC)cc2)c2c(c(C(=O)NN3CCC(O)CC3)nn2-c2ccc(Cl)cc2Cl)C1 [Cpd 144, (7E)-1-(2,4-dichloro-phenyl)-3-(4-hydroxy-piperidin-1-ylcarbamoyl)-7-(4-methoxy-benzylidene)-1,4,6,7-tetrahydro-pyrazolo[4,3-c]pyridine-5-carboxylic acid methyl ester]",inhibition at 0.2 µM,[1]; [4],42%
same,inhibition at 0.2 µM,[2]; [4],27%
"O=C(NN1CCC(O)CC1)c1nn(-c2ccc(Cl)cc2Cl)c2c1CNC/C2=C\c1ccc(F)cc1 [Cpd 145, (7E)-1-(2,4-dichloro-phenyl)-7-(4-fluoro-benzylidene)-4,5,6,7-tetrahydro-1H-pyrazolo[4,3-c]pyridine-3-carboxylic acid (4-hydroxy-piperidin-1-yl)-amide]",inhibition at 0.2 µM,[1]; [4],12%
same,inhibition at 0.2 µM,[2]; [4],5%
"COC(=O)N1C/C(=C\c2ccc(F)cc2)c2c(c(C(=O)NN3CCC(O)CC3)nn2-c2ccc(Cl)cc2Cl)C1 [Cpd 146, (7E)-1-(2,4-dichloro-phenyl)-7-(4-fluoro-benzylidene)-3-(4-hydroxy-piperidin-1-ylcarbamoyl)-1,4,6,7-tetrahydro-pyrazolo[4,3-c]pyridine-5-carboxylic acid methyl ester]",inhibition at 0.2 µM,[1]; [4],40%
same,inhibition at 0.2 µM,[2]; [4],11%
